Tests used:
Format in all cases: cell-based, human
STAT3 mRNA [1] = assay: STAT3 mRNA expression in IL-6 stimulated PANC-1 cells, branched DNA assay; conditions: for STAT3 Inhibition 2 nM / STAT3 Inhibition 20 nM: 2 point DR data; for IC50: 5 point DR data, Lipofectamine2000 transfection, 48 hr, read-out: STAT3 PANC1 IC50 Prism
Description: (§1) The ASOs of the present disclosure were tested for their ability to reduce STAT3 mRNA expression in IL-6 stimulated PANC-1 cells. The PANC-1 cells were grown in cell culture media and seeded onto a 96 well plate at a density of 20,000 cells/well. ASOs were tested in two separate cohorts: 2 doses or 5 doses were given to the PANC-1 cells (See TABLE 3) at final concentrations of 20 nM and 2 nM, respectively. The assay used Lipofectamine2000 transfection and a 48 hr treatment cycle, with incubation at 37° C. and 5% C02. Analysis of the mRNA expression was then carried out using a branched DNA assay.

STAT3 mRNA [2] = assay: as above; conditions: 5 point DR data
GAPDH [3] = assay: GAPDH inhibition in PANC-1 cells, same assay; conditions: 2 point DR data
Description: as §1, with “The” for “The ASOs of the present disclosure were tested for their ability to reduce STAT3 mRNA expression in IL-6 stimulated PANC-1 cells. The”

NRas mRNA = NRas mRNA expression in HEK-293 cells, branched DNA assay; parameters: NRAS max inhibition: unit not given here; conditions: for IC20 / IC50 / IC80 / max. inhib. [%]:: HEK293 cells: dose-response; for NRAS max inhibition: Table 6
Description: as §1, with “NRas” for “STAT3”, “HEK-293” for “IL-6 stimulated PANC-1”, “HEK-293” for “PANC-1”, “TABLES 4, 5 and 6)” for “TABLE 3)”, “nM” for “nM,”

GAPDH [4] = assay: GAPDH inhibition in HEK-293 cells, same assay; parameters: GAPDH max inhibition: unit not given here; conditions: for 2D GAPDH 20 nM inhibition: 2D (dual-dose); for GAPDH max inhibition: Table 6

Substance	STAT3 Inhibition 2 nM (STAT3 mRNA [1])	STAT3 Inhibition 20 nM (STAT3 mRNA [1])	IC50 (STAT3 mRNA [1]) [nM]	STAT3 Max inihibition 24 nM (STAT3 mRNA [2])	GAPDH Inhibition 20 nM (GAPDH [3])	IC20 (NRas mRNA) [nM]	IC50 (NRas mRNA) [nM]	IC80 (NRas mRNA) [nM]	max. inhib. [%]: (NRas mRNA) [%]	NRAS max inhibition (NRas mRNA)	2D GAPDH 20 nM inhibition (GAPDH [4])	GAPDH max inhibition (GAPDH [4])
102 (TTGGCTCGATCCAGGAGTGT; chemistry not given here) [compound 102]	82.7	89.5	0.473	78.02	16.00							
103 (CTCCTGTTGGCTCGATCCAG; chemistry not given here) [compound 103]	82.5	95.8	0.465	89.93	10.00							
105 (GGATAGTCCTCTAAGTGCAT; chemistry not given here) [compound 105]	79.4	91.6	1.47	85.61	13.00							
107 (TAGCGTGGCTAGATCCACAT; chemistry not given here) [compound 107]	79.0	87.7	0.037	70.92	8.00							
112 (GCGAAGATCCACACGGCCAT; chemistry not given here) [compound 112]	70.0	91.0	1.04	86.32	−25.00							
114 (GTTGATCGCAGCGAAGATCC; chemistry not given here) [compound 114]	66.4	87.0	0.814	84.94	10.00							
115 (CTGTTGATCGCAGCGAAGAT; chemistry not given here) [compound 115]	65.2	90.8	0.796	78.99	3.00							
185 (TCCGAGAGTGTTGCCTCGCA; chemistry not given here) [compound 185]						0.074	0.349	3.8	85.4			
200 (GTTATGGTCAGTTAATAGAA; chemistry not given here) [compound 200]						0.041	0.16	0.666	97.6	98.68	33.52	38.68
201 (CACCAGGGAACATCTCGGGG; chemistry not given here) [compound 201]						0.024	0.1	0.455	97.2	98.45	16.86	45.30
206 (GAGCCTGGTTGGAAGCTGCA; chemistry not given here) [compound 206]						0.117	0.471	2.58	90.9	94.95	40.87	44.21
218 (GTTACGCTGTTTGGCCG; chemistry not given here) [compound 218]						0.139	0.427	1.94	88.0	90.00	28.11	25.71
223 (CGCTGTTTGGCCGGGCAGAA; chemistry not given here) [compound 223]						0.121	0.581	35.4	80.8	85.75	20.53	18.44
224 (GCTGTTTGGCCGGGCAGAAA; chemistry not given here) [compound 224]						0.639	1.93		72.0			
227 (GTTTGGCCGGGCAGAAACTC; chemistry not given here) [compound 227]						0.087	0.413	4.05	86.3	87.95	24.56	18.30
231 (GCCGGGCAGAAACTCCGCTG; chemistry not given here) [compound 231]						0.18	0.538	2.1	90.4	93.63	36.92	29.21
238 (CTCCCCGAGATGTTCCCTGG; chemistry not given here) [compound 238]						0.139	0.646	4.79	88.9	90.92	22.48	26.33
239 (AGGCTCCCCGAGATGTTCCC; chemistry not given here) [compound 239]						0.027	0.159	1.46	90.4	94.35	39.01	37.62
247 (AAACAGCGTAACCCCTTCTT; chemistry not given here) [compound 247]						0.122	0.561	4.14	88.8	90.09	25.39	25.35
248 (CAAACAGCGTAACCCCTTCT; chemistry not given here) [compound 248]						0.051	0.288	2.4	91.0	93.72	30.77	37.96
250 (GCCAAACAGCGTAACCCCTT; chemistry not given here) [compound 250]						0.173	0.715	5.68	86.3	88.02	27.30	33.44
252 (CCAAACAGCGTAACC; chemistry not given here) [compound 252]						0.072	0.296	1.95	88.4	91.49	13.40	29.98
253 (CGGCCAAACAGCGTAAC; chemistry not given here) [compound 253]						0.108	0.461	2.79	90.4	94.40	40.44	29.34
254 (GCCAAACAGCGTAAC; chemistry not given here) [compound 254]						0.067	0.336	2.11	93.4	96.11	20.10	32.96
257 (TCTGCCCGGCCAAACAGCGT; chemistry not given here) [compound 257]						0.069	0.364	3.67	87.3	91.79	21.09	30.55
264 (GCGGAGTTTCTGCCCGGCCA; chemistry not given here) [compound 264]						0.039	0.229	2.43	88.5	91.73	10.43	26.13
SEQ ID NO: 232: NRas ASO, starting nucleotide 400, length 20 (CCGGGCAGAAACTCCGCTGA; chemistry not given here)						0.048	0.245	1.59	93.2	95.91	36.10	53.16
SEQ ID NO: 236: NRas ASO, starting nucleotide 421, length 20 (CCCCGAGATGTTCCCTGGTG; chemistry not given here)						0.053	0.349	4.78	87.3	91.51	34.05	40.06
